The values below come from ChEMBL document CHEMBL1201862, “PubChem BioAssay data set” (2004).

Each structure is given as a SMILES string. Activity calls are given as the source filed them.

Experiment [1] is described as follows: microbe, parasite or virus in culture. Format: functional. The note with it: Mycobacterium tuberculosis.
Experiment [2] is described as follows: HEp-2 cell cytotoxicity, dose response, cytotoxicity control for RSV inhibitor project, HTS (AID 2410). The conditions noted are these: human respiratory syncytial virus. The class given is functional.
The target of experiment [3] is T1, Corticotropin-releasing factor receptor 2/Corticotropin-releasing factor-binding protein (Homo sapiens, UniProt P24387+Q13324).
T1 sequence (Q13324 whole entry): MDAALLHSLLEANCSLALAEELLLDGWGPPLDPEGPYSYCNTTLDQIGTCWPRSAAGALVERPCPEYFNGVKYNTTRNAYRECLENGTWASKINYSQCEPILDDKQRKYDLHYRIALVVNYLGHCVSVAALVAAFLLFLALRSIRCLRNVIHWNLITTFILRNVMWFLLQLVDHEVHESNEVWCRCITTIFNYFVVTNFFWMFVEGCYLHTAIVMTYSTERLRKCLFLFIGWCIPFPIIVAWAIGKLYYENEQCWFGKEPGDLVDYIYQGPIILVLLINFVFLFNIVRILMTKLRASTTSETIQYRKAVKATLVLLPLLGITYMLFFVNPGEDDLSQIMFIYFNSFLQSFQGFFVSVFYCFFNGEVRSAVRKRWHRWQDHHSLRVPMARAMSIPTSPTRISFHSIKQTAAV
T1 sequence (P24387 whole entry): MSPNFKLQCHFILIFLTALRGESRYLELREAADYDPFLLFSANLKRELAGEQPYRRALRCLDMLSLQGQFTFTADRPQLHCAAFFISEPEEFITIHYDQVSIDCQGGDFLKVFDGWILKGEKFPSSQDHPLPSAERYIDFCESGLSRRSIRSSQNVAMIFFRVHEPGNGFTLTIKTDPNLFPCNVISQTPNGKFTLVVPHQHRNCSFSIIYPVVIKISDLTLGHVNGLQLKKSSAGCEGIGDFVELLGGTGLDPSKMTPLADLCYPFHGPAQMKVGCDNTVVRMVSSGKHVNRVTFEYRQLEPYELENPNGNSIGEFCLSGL
The experiment can be described thus: Dose Response confirmation of uHTS hits for small molecule antagonists of the CRF-binding protein and CRF-R2 receptor complex. Format: functional. The note with it: read-out: IC50_Mean.

For experiment [4], the target named is T1, Corticotropin-releasing factor receptor 2/Corticotropin-releasing factor-binding protein. Nature of the experiment: activators of CRF receptor 2 with binding protein – uHTS hits, confirmation (AID 602473). The conditions noted are these: read-out: EC50_Mean. The class given is functional.
A further experiment has as its target Cytochrome P450 3A4 (Homo sapiens, UniProt P08684). The conditions noted are these: Potency.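 Note: confirmatory qHTS run detecting inhibitors and substrates of CYP3A4.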
A short description of experiment [5]: inhibitors of firefly luciferase expression or activity, dose response, H4 neuroglioma cells, luminescence (AID 1990). The class given is functional, cell-based.
Experiment [6] in a line: Luminescence Cell-Based Dose Response HTS to Identify Inhibitors of 5'UTR Stem-Loop Driven Prion Protein mRNA Translation in H4 Neuroglioblastoma Cells. [Related pubchem assays: 1827 (Project Summary), 1813 (Primary HTS)]. The class given is functional.
The nature of experiment [7]: inhibitors of SNCA 5'UTR-driven reporter translation, confirmation, H4 neuroglioma cells, luminescence (AID 1988). Format: functional, cell-based.
Experiment [8] deals with T2, Calpain-2 catalytic subunit (Sus scrofa, UniProt P43367).
T2 sequence (P43367 whole entry): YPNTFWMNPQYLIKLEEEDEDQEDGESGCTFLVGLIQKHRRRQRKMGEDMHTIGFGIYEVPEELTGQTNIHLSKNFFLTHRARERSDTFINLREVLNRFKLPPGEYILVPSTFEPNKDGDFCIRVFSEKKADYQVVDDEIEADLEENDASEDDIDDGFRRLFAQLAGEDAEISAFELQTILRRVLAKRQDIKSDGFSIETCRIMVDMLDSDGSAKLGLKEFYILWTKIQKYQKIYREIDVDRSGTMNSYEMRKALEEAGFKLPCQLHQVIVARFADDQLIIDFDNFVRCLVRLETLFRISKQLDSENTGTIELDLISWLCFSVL
Nature of the experiment: pig calpain II inhibitor potency, dose response, biochemical, fluorogenic peptide substrate (AID 1420). The class given is functional.

Experiment [9] has as its target Luciferin 4-monooxygenase (Photinus pyralis, UniProt P08659). The experiment can be described thus: firefly luciferase enzyme inhibitors, dose response, biochemical, luminescence (AID 1891).
A short description of experiment [10]: Luminescence Cell-Based Dose Confirmation HTS to Identify Inhibitors of Platelet Dense Granule Release. [Related pubchem assays: 1663 (Primary HTS), 1678 (Summary of Project)]. The class given is functional.
Experiment [11] relates to Streptococcus sp. 'group A'. The experiment can be described thus: growth inhibition of control SK(-) GAS strain, dose response, counter-screen for streptokinase expression inhibitor project, luminescence, kanamycin, BacTiterGlo, confirmation (AID 1900). Format: functional, organism-based.
A further experiment addresses T3, Streptokinase A (Streptococcus pyogenes serotype M1, UniProt P10520).
T3 sequence (P10520 whole entry): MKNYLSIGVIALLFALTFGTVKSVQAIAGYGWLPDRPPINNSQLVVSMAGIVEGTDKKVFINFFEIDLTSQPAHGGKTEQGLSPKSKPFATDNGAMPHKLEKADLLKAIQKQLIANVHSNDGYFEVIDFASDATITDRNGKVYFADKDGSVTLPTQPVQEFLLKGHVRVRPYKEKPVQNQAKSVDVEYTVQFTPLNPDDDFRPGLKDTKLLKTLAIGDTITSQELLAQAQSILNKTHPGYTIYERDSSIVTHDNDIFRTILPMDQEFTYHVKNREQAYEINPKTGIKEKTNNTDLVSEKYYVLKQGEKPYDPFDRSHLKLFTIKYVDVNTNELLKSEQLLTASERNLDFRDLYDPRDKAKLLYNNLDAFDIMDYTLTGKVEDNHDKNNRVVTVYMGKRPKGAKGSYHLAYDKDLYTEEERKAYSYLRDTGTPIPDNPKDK
Nature of the experiment: S. pyogenes streptokinase expression inhibitors, potency, dose response, plasminogen activation absorbance, OD405 (AID 1914).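 Note: secreted streptokinase activity via plasminogen activation per viability signal from cell pellet.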 The class given is functional, Streptococcus pyogenes M1 GAS.

In the next experiment the test system is Streptococcus. The experiment can be described thus: Group A Streptococcus viability loss, dose response, counter-screen for streptokinase expression inhibitor project, luminescence, BacTiterGlo (AID 1915).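 Note: potency for reduction of bacterial viability or growth.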 Format: functional, organism-based.
Experiment [12] in a line: Luminescence Cell-Based Dose Retest to Confirm Inhibitors of Cancer Stem Cells. [Related pubchem assays (depositor defined):AID2717, AID2721]. The class given is functional. The note with it: Homo sapiens.

Sequence of Cytochrome P450 3A4 (P08684 whole entry): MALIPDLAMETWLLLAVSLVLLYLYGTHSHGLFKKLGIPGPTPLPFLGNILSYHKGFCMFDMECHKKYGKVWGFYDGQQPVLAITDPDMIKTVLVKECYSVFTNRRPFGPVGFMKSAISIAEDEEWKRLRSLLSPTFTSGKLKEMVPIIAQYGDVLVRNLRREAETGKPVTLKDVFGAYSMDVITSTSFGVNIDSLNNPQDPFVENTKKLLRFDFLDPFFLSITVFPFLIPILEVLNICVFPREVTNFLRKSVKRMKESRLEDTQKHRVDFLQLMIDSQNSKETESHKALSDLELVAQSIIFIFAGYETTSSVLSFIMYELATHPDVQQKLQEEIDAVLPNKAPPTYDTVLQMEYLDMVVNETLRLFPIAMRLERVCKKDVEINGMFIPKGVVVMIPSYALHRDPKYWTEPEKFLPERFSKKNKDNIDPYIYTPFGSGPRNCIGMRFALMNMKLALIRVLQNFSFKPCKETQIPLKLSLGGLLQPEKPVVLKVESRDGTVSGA
Sequence of Luciferin 4-monooxygenase (P08659 whole entry): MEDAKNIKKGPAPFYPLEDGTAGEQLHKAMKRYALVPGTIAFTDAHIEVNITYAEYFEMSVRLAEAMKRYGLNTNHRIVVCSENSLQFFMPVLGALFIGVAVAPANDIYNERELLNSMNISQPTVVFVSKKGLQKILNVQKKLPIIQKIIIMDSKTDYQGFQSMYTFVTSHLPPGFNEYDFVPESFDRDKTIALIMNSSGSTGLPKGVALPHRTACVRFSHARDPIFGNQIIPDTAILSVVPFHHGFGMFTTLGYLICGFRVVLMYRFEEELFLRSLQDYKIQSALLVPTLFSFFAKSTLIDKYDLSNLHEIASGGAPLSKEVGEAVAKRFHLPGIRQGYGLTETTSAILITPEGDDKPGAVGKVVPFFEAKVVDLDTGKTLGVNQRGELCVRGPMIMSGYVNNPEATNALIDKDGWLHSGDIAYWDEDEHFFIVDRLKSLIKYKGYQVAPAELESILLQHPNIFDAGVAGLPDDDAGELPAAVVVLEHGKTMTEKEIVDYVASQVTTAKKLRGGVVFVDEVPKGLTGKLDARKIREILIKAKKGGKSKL

In the case of `c1ccc(CN2CCC3(CCCc4ccccc43)CC2)cc1`, the CC50 in experiment [1] is > 40 µM (active).

`FC(F)(F)c1ccccc1-c1nc(-c2ccncc2)no1`: in experiment [2], the CC50 is 30.5 µM (active). Moreover, in [3], the IC50 is > 47.1 µM (inactive). Moreover, the EC50 in experiment [4] is > 53 µM (inactive).

As for `COC(=O)[C@@H]1C[C@H]2CC[C@H](O)C[C@H]2N1Cc1ccc(-c2ccccc2)cc1`, the AC50 (as a rule, the concentration giving half of the maximal activity seen) at Cytochrome P450 3A4 was 12.6 µM (inconclusive).

In the case of `CC(C)c1ccc(/C=C/C2=NNC(=O)CC2)cc1`, the EC50 in experiment [5] is < 0.1 µM (active); in experiment [6] it was 11.5 µM (active); in experiment [7] it was 0.13 µM (active). The IC50 in experiment [8] was 14.3 µM (not active).

For the molecule `COc1ccc2nc(NN=C3C(=O)CC(C)(C)CC3=O)sc2c1`, in experiment [1], the CC50 is 26.2 µM (active).

As to `CCN(CC)CCCn1c(-c2ccccc2)nc2c(NCc3ccccc3)nc(C)nc21`, the AC50 on Cytochrome P450 3A4 is 10 µM (inconclusive).

As for `O=C(c1ccc(Oc2ccccc2)cc1)c1nc2c(n1O)CCCC2`, in experiment [8], the IC50 was 12.9 µM (not active).

For the molecule `CCN(c1cccc(C)c1)c1nc2ccsc2c(=O)s1`, the IC50 in experiment [3] was > 47.1 µM (inactive). In addition, in experiment [4], the EC50 was > 53 µM (inactive).

`COC(=O)[C@@H]1C[C@@]2(O)[C@H](O)[C@H](O)[C@H](O)C[C@H]2N1Cc1ccc(N2CCN(C)CC2)cc1`: at Cytochrome P450 3A4, the AC50 was 31.6 µM (inconclusive).

Regarding `CCc1nnc(NC(=O)[C@@H](NC(=O)c2cc(OC)cc(OC)c2)C(C)C)s1`, the EC50 in experiment [9] and in experiment [10] was > 112 µM (not active) throughout. The IC50 in experiment [8] is given as 49.9 µM (not active).

On to `COc1ccc(OC2C(O)COC2/C=C/C#Cc2ccccc2)cc1` (centres undefined), for which, on Cytochrome P450 3A4, the AC50 is 3.98 µM (inconclusive).

As to `O=C(/C=C/c1ccccc1[N+](=O)[O-])N1CCOCC1`, the IC50 in experiment [3] is > 47.1 µM (inactive). Also, the EC50 in [4] was > 53 µM (inactive).

`CC(=O)c1ccccc1NC(=O)Cn1c(=O)cnc2ccccc21`: the IC50 in [3] is > 47.1 µM (inactive). In addition, the EC50 in experiment [4] is > 53 µM (inactive).

As to `CC(=O)OCC(=O)[C@@]1(O)CCC2C3CC(C)C4=CC(=O)C=CC4(C)C3C(O)CC21C` (some centres undefined), the AC50 at Cytochrome P450 3A4 was 12.6 µM (inconclusive).

As for `Cc1nc(N2CCOCC2)c2nc(-c3ccccc3)n(CC(C)(C)CN(C)C)c2n1`, at Cytochrome P450 3A4, the AC50 was 10 µM (inconclusive).

Turning to `CCc1cccc2c(SCC(=O)NCC3CCCO3)nc(-c3ccc(F)cc3)nc12` (centres undefined), the IC50 in [8] is on record as 26.2 µM (not active).

Consider `O=C(COC(=O)COc1ccc(Cl)cc1Br)NCc1cccs1`, for which, in [3], the IC50 was > 47.1 µM (inactive). The EC50 in [4] was > 53 µM (inactive).

As for `COc1ccc2[nH]cc(CC(N)C(=O)O)c2c1` (centres undefined), the AC50 on Cytochrome P450 3A4 is 31.6 µM (inconclusive).

For `O=C1NN=C(c2ccc(Cl)cc2)CC1c1cccc(Br)c1` (centres undefined), the IC50 in experiment [8] is 12.5 µM (not active).

With `CCCC1Cc2c(sc(NC(=S)NC(=O)c3ccccc3)c2C#N)CO1` (centres undefined), the IC50 in experiment [8] is on record as 31 µM (not active).

On to `N#Cc1ccc(C23CC4(C2)[C@H](CN(CC2CCCCC2)[C@@H]4c2ccccc2)C3c2ccc(C(F)(F)F)cc2)cc1` (some centres undefined), for which the AC50 at Cytochrome P450 3A4 is 15.8 µM (inconclusive).

On to `Clc1ccc2nc(-c3ccccn3)c(Nc3ccc4c(c3)OCO4)n2c1`, for which the EC50 in [11] was 6.89 µM (active); at Streptokinase A it was > 150 µM (not active); with Streptococcus, 12.7 µM (active). In addition, the IC50 in experiment [8] is 0.608 µM (not active).

Consider `c1ccc(Nc2ccc3ccccc3c2)cc1`, for which, at Cytochrome P450 3A4, the AC50 is 25.1 µM (inconclusive).

For the molecule `CCNC(=O)NCc1c(C)c(C)n(Cc2ccccc2)c1-n1cccc1`, in experiment [8], the IC50 is reported as 8.86 µM (not active).

In the case of `CC(NC(=O)CCCCCN1C(=O)c2ccccc2C1=O)c1ccc2c(c1)CCCC2` (centres undefined), the IC50 in [8] is recorded as 10.7 µM (not active).

Regarding `Cc1ccccc1C(=O)Nc1ccc(-c2nc3cc(C(=O)c4ccccc4)ccc3[nH]2)cc1`, the results for the CC50 in [2] and in experiment [1] were 6.02 µM (active) and > 40 µM (active), respectively. Further, the AC50 in experiment [12] is 1.36 µM (active).

`Cc1nc(SCC(=O)NC(C)c2ccccc2)c2oc3ccccc3c2n1` (centres undefined): the IC50 in [8] was < 0.4 µM (not active).

In the case of `Cc1ccc(-c2csc(NC(=S)NC(=O)c3ccco3)n2)cc1`, in experiment [8], the IC50 is 4.46 µM (not active).

For the molecule `CC(=O)O[C@@]1(C(C)=O)CCC2C3CC(C)C4=CC(=O)CC[C@@]4(C)C3CC[C@]21C` (some centres undefined), the AC50 on Cytochrome P450 3A4 was 39.8 µM (inconclusive).

On to `CCCCCC(=O)NNC(=O)c1ccc(F)cc1`, for which the IC50 in [3] is > 47.1 µM (inactive). Further, the EC50 in experiment [4] is > 53 µM (inactive).

Take `CCC1=C(OC(=O)N(CC)CC)N2C(=O)O/C(=N\CCc3c[nH]c4ccccc34)[C@]2(Cc2ccccc2)[C@H]2C1=CC[C@H]1C(=O)NC(=O)[C@H]12`: in [1], the CC50 is > 40 µM (active).

Consider `O=C(CCCCCCCCCCCCC1CCCC1)Nc1ccc(S(=O)(=O)c2ccc(NC(=O)CCCCCCCCCCCCC3CCCC3)cc2)cc1` [CHAULMOSULFONE], for which, at Cytochrome P450 3A4, the AC50 is 31.6 µM (inconclusive).
